According to US20240150377A1, “MODULATORS OF CYSTIC FIBROSIS TRANSMEMBRANE CONDUCTANCE REGULATOR” (VERTEX PHARMACEUTICALS INCORPORATED, priority 2020, published 2024):
pEC50: −log10 of the molar value. Like-named read-outs stand apart in the source and are kept apart here.

Biological target: CFTR (Homo sapiens, UniProt P13569)
Assay: Membrane potential dye, Enteroid Assay A
Format: cell-based
Settings: for Ent. A Max Activity: chloride transport as % of triple combination control (Enteroid Assay A); for pEC50: human enteroid cells, 18-24 hours, acute 10 μM forskolin and 300 nM ivacaftor, read-out: Ent. A EC50
Summary of the method: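 % Activity: chloride transport relative to a 3 μM/3 μM corrector pair plus 300 nM acute potentiator control. Primary human enteroid cells, 18-24 h compound exposure at 37 °C; membrane potential dye (methyl oxonol) fluorescence over 15 min after forskolin (10 μM)/IBMX (100 μM)/Compound III (300 nM) stimulation in chloride-free buffer.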

Chain of CFTR (P13569 with tags, fused parts or gaps DEL508-508): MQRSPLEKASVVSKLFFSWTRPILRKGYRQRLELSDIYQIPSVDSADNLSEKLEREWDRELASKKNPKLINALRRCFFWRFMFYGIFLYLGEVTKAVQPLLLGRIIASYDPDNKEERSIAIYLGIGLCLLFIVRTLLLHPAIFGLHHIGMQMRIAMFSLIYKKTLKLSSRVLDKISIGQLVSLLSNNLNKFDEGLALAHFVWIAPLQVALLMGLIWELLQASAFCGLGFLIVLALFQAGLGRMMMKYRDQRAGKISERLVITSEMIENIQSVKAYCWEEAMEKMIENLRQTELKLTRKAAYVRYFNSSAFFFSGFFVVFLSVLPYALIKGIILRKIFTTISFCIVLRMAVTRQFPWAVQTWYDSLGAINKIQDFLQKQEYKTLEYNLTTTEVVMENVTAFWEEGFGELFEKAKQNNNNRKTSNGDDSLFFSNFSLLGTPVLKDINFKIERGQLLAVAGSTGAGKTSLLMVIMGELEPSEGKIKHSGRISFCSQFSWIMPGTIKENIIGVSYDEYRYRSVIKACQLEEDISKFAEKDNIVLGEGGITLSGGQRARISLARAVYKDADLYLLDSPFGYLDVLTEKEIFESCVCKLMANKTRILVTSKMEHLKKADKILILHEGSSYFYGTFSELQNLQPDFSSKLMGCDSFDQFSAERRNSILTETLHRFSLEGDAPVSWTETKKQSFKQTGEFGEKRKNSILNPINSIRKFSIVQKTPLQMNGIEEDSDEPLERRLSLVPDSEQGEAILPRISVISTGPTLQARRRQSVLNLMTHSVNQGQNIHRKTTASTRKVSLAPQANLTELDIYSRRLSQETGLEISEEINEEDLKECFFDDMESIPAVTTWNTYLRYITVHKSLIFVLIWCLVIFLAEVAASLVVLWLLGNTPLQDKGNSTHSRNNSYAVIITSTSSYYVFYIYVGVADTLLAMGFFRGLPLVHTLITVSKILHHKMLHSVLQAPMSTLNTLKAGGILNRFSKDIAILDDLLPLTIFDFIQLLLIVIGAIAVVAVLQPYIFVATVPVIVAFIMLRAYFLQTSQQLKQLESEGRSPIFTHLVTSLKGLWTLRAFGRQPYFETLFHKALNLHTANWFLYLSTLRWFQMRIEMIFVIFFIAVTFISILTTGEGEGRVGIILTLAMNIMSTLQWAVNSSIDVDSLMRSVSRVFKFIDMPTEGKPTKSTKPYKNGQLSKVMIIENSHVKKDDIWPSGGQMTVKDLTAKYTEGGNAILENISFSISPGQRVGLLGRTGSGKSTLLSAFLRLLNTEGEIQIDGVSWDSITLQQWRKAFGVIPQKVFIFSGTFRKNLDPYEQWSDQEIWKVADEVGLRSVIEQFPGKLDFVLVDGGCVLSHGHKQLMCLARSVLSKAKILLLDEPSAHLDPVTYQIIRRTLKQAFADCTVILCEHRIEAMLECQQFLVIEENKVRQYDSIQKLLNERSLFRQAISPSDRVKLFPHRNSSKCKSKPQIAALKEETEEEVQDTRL

SMILES | Ent. A Max Activity (Table 6) | pEC50 (Table 6) | Ent. A Max Activity (Table 7) | pEC50 (Table 7)
Cc1cccc(C)c1-c1cc2nc(n1)NS(=O)(=O)c1cccc(c1)C(=O)N(CCC(C)C)C(CCC1(C(F)(F)F)CC1)CO2 (centres unmarked) [Compound 688] | +++ (+++ is >60%) | > 6.00 | – | –
Cc1cccc(C)c1-c1cc2nc(n1)NS(=O)(=O)c1cccc(c1)C(=O)N(Cc1ccccc1)C(CCC1(C(F)(F)F)CC1)CO2 (centres unmarked) [Compound 689] | +++ (+++ is >60%) | > 6.00 | – | –
Cc1cccc(C)c1-c1cc2nc(n1)NS(=O)(=O)c1cccc(c1)C(=O)N(CCC(C)C)[C@H](CCC1(C(F)(F)F)CC1)CO2 [Compound 851] | + (+ is <30%) | – | – | –
Cc1cccc(C)c1-c1cc2nc(n1)NS(=O)(=O)c1cccc(c1)C(=O)N(Cc1ccccc1)[C@@H](CCC1(C(F)(F)F)CC1)CO2 [Compound 852] | ++ (++ is 30-60%) | > 6.00 | – | –
Cc1cccc(C)c1-c1cc2nc(n1)NS(=O)(=O)c1cccc(c1)C(=O)N(Cc1ccccc1)[C@H](CCC1(C(F)(F)F)CC1)CO2 [Compound 853] | ++ (++ is 30-60%) | > 6.00 | – | –
Cc1cccc(C)c1-c1cc2nc(n1)NS(=O)(=O)c1cccc(c1)C(=O)N(Cc1ccc(N3CCN(C)CC3)nc1)[C@H](CC(C)C)CO2 [Compound 854] | +++ (+++ is >60%) | > 6.00 | – | –
Cc1cccc(C)c1-c1cc2nc(n1)NS(=O)(=O)c1cccc(c1)C(=O)N(Cc1ccn(C)n1)[C@H](CC(C)C)CO2 [Compound 855] | +++ (+++ is >60%) | > 6.00 | – | –
Cc1cccc(C)c1-c1cc2nc(n1)NS(=O)(=O)c1cccc(c1)C(=O)N(Cc1ccc(N3CCN(C)CC3)cc1)[C@H](CC(C)C)CO2 [Compound 856] | +++ (+++ is >60%) | > 6.00 | – | –
CNc1ccc(CN2C(=O)c3cccc(c3)S(=O)(=O)Nc3nc(cc(-c4c(C)cccc4C)n3)OC[C@H]2CC(C)C)cn1 [Compound 857] | +++ (+++ is >60%) | > 6.00 | – | –
Cc1cccc(C)c1-c1cc2nc(n1)NS(=O)(=O)c1cccc(c1)C(=O)N(Cc1ccc(N3CCCC3)cc1)[C@H](CC(C)C)CO2 [Compound 858] | +++ (+++ is >60%) | > 6.00 | – | –
Cc1cccc(C)c1-c1cc2nc(n1)NS(=O)(=O)c1cccc(c1)C(=O)N(Cc1cccc(C#N)c1)[C@H](CC(C)C)CO2 [Compound 859] | +++ (+++ is >60%) | > 6.00 | – | –
Cc1cccc(C)c1-c1cc2nc(n1)NS(=O)(=O)c1cccc(c1)C(=O)N(Cc1ccn[nH]1)[C@H](CC(C)C)CO2 [Compound 860] | +++ (+++ is >60%) | > 6.00 | – | –
Cc1cccc(C)c1-c1cc2nc(n1)NS(=O)(=O)c1cccc(c1)C(=O)N(Cc1ccccc1C#N)[C@H](CC(C)C)CO2 [Compound 861] | ++ (++ is 30-60%) | 5.52 to 6.00 | – | –
Cc1cccc(C)c1-c1cc2nc(n1)NS(=O)(=O)c1cccc(c1)C(=O)N(Cc1ccccc1)[C@H](CC(C)C)CO2 [Compound 862] | +++ (+++ is >60%) | > 6.00 | – | –
Cc1cccc(C)c1-c1cc2nc(n1)NS(=O)(=O)c1cccc(c1)C(=O)N(CC(C)C)C[C@H](Cc1ccccc1)O2 [Compound 863] | +++ (+++ is >60%) | > 6.00 | – | –
Cc1cccc(C)c1-c1cc2nc(n1)NS(=O)(=O)c1cccc(c1)C(=O)N(CC(C)C)C[C@H](c1ccccc1)O2 [Compound 864] | ++ (++ is 30-60%) | > 6.00 | – | –
CCN(CCO)c1ccc(CN2C(=O)c3cccc(c3)S(=O)(=O)Nc3nc(cc(-c4c(C)cccc4C)n3)OC[C@H]2CC(C)C)cn1 [Compound 935] | – | – | +++ (+++ is >60%) | > 6.00
Cc1cccc(C)c1-c1cc2nc(n1)NS(=O)(=O)c1cccc(c1)C(=O)N(Cc1ccc(N3CCC4(CCC4)CC3)nc1)[C@H](CC(C)C)CO2 [Compound 936] | – | – | +++ (+++ is >60%) | > 6.00
Cc1cccc(C)c1-c1cc2nc(n1)NS(=O)(=O)c1cccc(c1)C(=O)N(Cc1ccc(N3CCC(F)(F)CC3)nc1)[C@H](CC(C)C)CO2 [Compound 937] | – | – | +++ (+++ is >60%) | > 6.00
Cc1cccc(C)c1-c1cc2nc(n1)NS(=O)(=O)c1cccc(c1)C(=O)N(Cc1ccc(N3CCC(C)(C#N)CC3)nc1)[C@H](CC(C)C)CO2 [Compound 938] | – | – | +++ (+++ is >60%) | > 6.00
Cc1cccc(C)c1-c1cc2nc(n1)NS(=O)(=O)c1cccc(c1)C(=O)N(Cc1ccc(N3CCC(C)(O)CC3)nc1)[C@H](CC(C)C)CO2 [Compound 939] | – | – | +++ (+++ is >60%) | > 6.00
Cc1cccc(C)c1-c1cc2nc(n1)NS(=O)(=O)c1cccc(c1)C(=O)N(Cc1ccc(N3CCC(C)(C)CC3)nc1)[C@H](CC(C)C)CO2 [Compound 940] | – | – | +++ (+++ is >60%) | > 6.00

SMILES | Ent. A Max Activity (Table 6) | pEC50 (Table 6) | Ent. A Max Activity (Table 7) | pEC50 (Table 7)
Cc1cccc(C)c1-c1cc2nc(n1)NS(=O)(=O)c1cccc(c1)C(=O)N(Cc1ccc(N3CCC(C(C)(C)C)CC3)nc1)[C@H](CC(C)C)CO2 [Compound 941] | – | – | +++ (+++ is >60%) | > 6.00
Cc1cccc(C)c1-c1cc2nc(n1)NS(=O)(=O)c1cccc(c1)C(=O)N(Cc1ccc(OCCN(C)C)nc1)[C@H](CC(C)C)CO2 [Compound 942] | – | – | +++ (+++ is >60%) | > 6.00
Cc1cccc(C)c1-c1cc2nc(n1)NS(=O)(=O)c1cccc(c1)C(=O)N(Cc1ccc(N(C)CCN(C)C)nc1)[C@H](CC(C)C)CO2 [Compound 943] | – | – | +++ (+++ is >60%) | > 6.00
Cc1cccc(C)c1-c1cc2nc(n1)NS(=O)(=O)c1cccc(c1)C(=O)N(Cc1ccc(NCCN(C)C)nc1)[C@H](CC(C)C)CO2 [Compound 944] | – | – | +++ (+++ is >60%) | > 6.00
Cc1cccc(C)c1-c1cc2nc(n1)NS(=O)(=O)c1cccc(c1)C(=O)N(Cc1ccc(N3CCC(N(C)C)CC3)nc1)[C@H](CC(C)C)CO2 [Compound 945] | – | – | +++ (+++ is >60%) | > 6.00
Cc1cccc(C)c1-c1cc2nc(n1)NS(=O)(=O)c1cccc(c1)C(=O)N(Cc1ccc(NCCO)nc1)[C@H](CC(C)C)CO2 [Compound 946] | – | – | +++ (+++ is >60%) | > 6.00
Cc1cccc(C)c1-c1cc2nc(n1)NS(=O)(=O)c1cccc(c1)C(=O)N(Cc1ccc(NC[C@@H](O)CO)nc1)[C@H](CC(C)C)CO2 [Compound 947] | – | – | +++ (+++ is >60%) | > 6.00
CC[C@H](O)CNc1ccc(CN2C(=O)c3cccc(c3)S(=O)(=O)Nc3nc(cc(-c4c(C)cccc4C)n3)OC[C@H]2CC(C)C)cn1 [Compound 948] | – | – | +++ (+++ is >60%) | 5.52 to 6.00
Cc1cccc(C)c1-c1cc2nc(n1)NS(=O)(=O)c1cccc(c1)C(=O)N(Cc1ccc(N(C)C)nc1)[C@H](CC(C)C)CO2 [Compound 949] | – | – | +++ (+++ is >60%) | > 6.00
Cc1cccc(C)c1-c1cc2nc(n1)NS(=O)(=O)c1cccc(c1)C(=O)N(Cc1ccc(N3CCC3)nc1)[C@H](CC(C)C)CO2 [Compound 950] | – | – | +++ (+++ is >60%) | > 6.00
Cc1cccc(C)c1-c1cc2nc(n1)NS(=O)(=O)c1cccc(c1)C(=O)N(Cc1ccc(N3C[C@@H](O)[C@@H](O)C3)nc1)[C@H](CC(C)C)CO2 [Compound 953] | – | – | +++ (+++ is >60%) | > 6.00
Cc1cccc(C)c1-c1cc2nc(n1)NS(=O)(=O)c1cccc(c1)C(=O)N(Cc1ccc(N3CC[C@@H](O)C3)nc1)[C@H](CC(C)C)CO2 [Compound 955] | – | – | +++ (+++ is >60%) | > 6.00
Cc1cccc(C)c1-c1cc2nc(n1)NS(=O)(=O)c1cccc(c1)C(=O)N(Cc1ccc(N3CCC(CO)CC3)nc1)[C@H](CC(C)C)CO2 [Compound 956] | – | – | +++ (+++ is >60%) | > 6.00
Cc1cccc(C)c1-c1cc2nc(n1)NS(=O)(=O)c1cccc(c1)C(=O)N(Cc1ccc(N3CC[C@@H](C)C3)nc1)[C@H](CC(C)C)CO2 [Compound 958] | – | – | +++ (+++ is >60%) | > 6.00
Cc1cccc(C)c1-c1cc2nc(n1)NS(=O)(=O)c1cccc(c1)C(=O)N(Cc1ccc(N3CCC[C@@H]3C)nc1)[C@H](CC(C)C)CO2 [Compound 960] | – | – | +++ (+++ is >60%) | > 6.00
Cc1cccc(C)c1-c1cc2nc(n1)NS(=O)(=O)c1cccc(c1)C(=O)N(Cc1ccc(N3CCCC3)nc1)[C@H](CC(C)C)CO2 [Compound 961] | – | – | +++ (+++ is >60%) | > 6.00
Cc1cccc(C)c1-c1cc2nc(n1)NS(=O)(=O)c1cccc(c1)C(=O)N(Cc1ccc(N3CCC[C@H](O)C3)nc1)[C@H](CC(C)C)CO2 [Compound 962] | – | – | +++ (+++ is >60%) | > 6.00
Cc1cccc(C)c1-c1cc2nc(n1)NS(=O)(=O)c1cccc(c1)C(=O)N(Cc1ccc(N3CCCC(O)C3)nc1)[C@H](CC(C)C)CO2 (some centres unmarked) [Compound 963] | – | – | +++ (+++ is >60%) | > 6.00
Cc1cccc(C)c1-c1cc2nc(n1)NS(=O)(=O)c1cccc(c1)C(=O)N(Cc1ccc(N3CCCC(C)C3)nc1)[C@H](CC(C)C)CO2 (some centres unmarked) [Compound 964] | – | – | +++ (+++ is >60%) | > 6.00
Cc1cccc(C)c1-c1cc2nc(n1)NS(=O)(=O)c1cccc(c1)C(=O)N(Cc1ccc(N3CCC4(CC3)COC4)nc1)[C@H](CC(C)C)CO2 [Compound 965] | – | – | +++ (+++ is >60%) | > 6.00
Cc1cccc(C)c1-c1cc2nc(n1)NS(=O)(=O)c1cccc(c1)C(=O)N(Cc1ccc(N3CCC(O)CC3)nc1)[C@H](CC(C)C)CO2 [Compound 966] | – | – | +++ (+++ is >60%) | > 6.00
Cc1cccc(C)c1-c1cc2nc(n1)NS(=O)(=O)c1cccc(c1)C(=O)N(Cc1ccc(C3=CCN(C)CC3)nc1)[C@H](CC(C)C)CO2 [Compound 967] | – | – | – | > 6.00
